# Results published in patent US12339285B2, “Method for estimating therapeutic efficacy” (Konica Minolta, Inc., priority 2017, dated 2025).
# Read-outs that look alike come from different tables or passages of the source.
# Tested on: tumor tissue of lung cancer patients transplanted in SCID mice
# Method: Further, tumor tissue was collected from each of the patients at the same time when drug administration was started, and a 2 mm-square piece of the tumor tissue was transplanted under the skin of SCID (Severe Combined ImminoDeficiency) mice (5 mice transplanted with tumor tissue derived from each patient were produced, and a total of 20 mice were produced). […] After 1 day and 100 days from the administration, tumor tissue was collected from the mice, and sample slides were prepared in the same manner as in Preparation for evaluation-1.
smiles,measurement,setting,value
COc1cc2ncnc(Nc3ccc(F)c(Cl)c3)c2cc1OCCCN1CCOCC1 [Gefitinib],resistance in PDX mice,"PDX mice of the patient B or D (so in the source), judged from tumor volume",resistance was not developed
same,volume of tumor,PDX mice transplanted with tumor tissue of patient F or H (drug resistant on day 100),"once reduced on day 100 after drug administration, but was increased thereafter"
same,resistance to Gefitinib in PDX mice,"PDX mice transplanted with tumor tissue of patient F or H, judged from tumor volume",resistance to Gefitinib was developed
same,volume of tumor,PDX mice transplanted with tumor tissue of the patient B or D (so in the source) with no drug resistance on day 100,gradually reduced
